Reference: ChEMBL document CHEMBL1201862, “PubChem BioAssay data set” (2004)
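1) Cells in 96-well plates. 2) Compound, 48 h, 5 concentrations. 3) Linear interpolation between surrounding doses. 4) Unreached endpoint = highest concentration. Abbreviation: GI50, concentration required for 50% inhibition of growth.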 Calls of active or inactive are those of the source. Cut-off read from the data, not from the text of the source: active = GI50 up to about 1.1 µM and inactive = higher.

What was measured:
Experiment in all cases: DTP human tumour cell line panel, 48 h
EKVX = system: EKVX
OVCAR-5 = system: OVCAR-5
DU-145 = system: DU-145
A549 = system: A549
DMS-273 = system: DMS-273
RXF 393 = system: RXF 393
XF498 = system: XF498
SF-295 = system: SF-295
MDA-MB-435 = system: MDA-MB-435
Malme-3M = system: Malme-3M
PC-3 = system: PC-3
A498 = system: A498
TK-10 = system: TK-10
SK-MEL-28 = system: SK-MEL-28
MDA-MB-231 = system: MDA-MB-231
K562 = system: K562
OVCAR-8 = system: OVCAR-8
DMS-114 = system: DMS-114
HOP-18 = system: HOP-18
MDA-N = system: MDA-N

Compound	GI50 (EKVX)	GI50 (OVCAR-5)	GI50 (DU-145)	GI50 (A549)	GI50 (DMS-273)	GI50 (RXF 393)	GI50 (XF498)	GI50 (SF-295)	GI50 (MDA-MB-435)	GI50 (Malme-3M)	GI50 (PC-3)	GI50 (A498)	GI50 (TK-10)	GI50 (SK-MEL-28)	GI50 (MDA-MB-231)	GI50 (K562)	GI50 (OVCAR-8)	GI50 (DMS-114)	GI50 (HOP-18)	GI50 (MDA-N)
COc1ccc(/C=c2/s/c(=C(\C#N)c3nc4ccccc4[nH]3)n(-c3ccccc3)c2=O)cc1	> 69.3 µM (inactive)	> 100 µM (inactive)	94.6 µM (inactive)	51.2 µM (inactive)	36.8 µM (inactive)	36 µM (inactive)	30.1 µM (inactive)	15.3 µM (inactive)	31.8 µM (inactive)	> 42.4 µM (inactive)	24 µM (inactive)	24.8 µM (inactive)	> 52.7 µM (inactive)	48.2 µM (inactive)	18.7 µM (inactive)	> 100 µM (inactive)	14.6 µM (inactive)	91 µM (inactive)	25 µM (inactive)	30.8 µM (inactive)
CC(SC1=CC(=O)c2c(O)ccc(O)c2C1=O)C(=O)O (stereo unspecified)	> 100 µM (inactive)	> 100 µM (inactive)	–	97.3 µM (inactive)	> 60.4 µM (inactive)	> 48.4 µM (inactive)	> 49.9 µM (inactive)	> 100 µM (inactive)	–	> 44.5 µM (inactive)	–	> 62.7 µM (inactive)	> 51.5 µM (inactive)	> 55.1 µM (inactive)	–	13.8 µM (inactive)	23.5 µM (inactive)	19.5 µM (inactive)	> 55.3 µM (inactive)	–
CCNCCCCNCC	> 3750 µM (inactive)	> 3750 µM (inactive)	–	> 3750 µM (inactive)	> 2550 µM (inactive)	> 3260 µM (inactive)	> 3750 µM (inactive)	> 3750 µM (inactive)	–	> 3750 µM (inactive)	–	> 3750 µM (inactive)	–	> 3750 µM (inactive)	–	> 3750 µM (inactive)	> 3750 µM (inactive)	> 3600 µM (inactive)	> 37.5 µM (inactive)	–
CC1NC(=O)C2=C1C(N)=NC(=O)C2 (stereo unspecified)	> 100 µM (inactive)	> 100 µM (inactive)	–	> 100 µM (inactive)	> 100 µM (inactive)	> 100 µM (inactive)	> 100 µM (inactive)	> 100 µM (inactive)	–	> 100 µM (inactive)	–	–	> 100 µM (inactive)	> 100 µM (inactive)	–	> 100 µM (inactive)	> 100 µM (inactive)	> 100 µM (inactive)	> 100 µM (inactive)	–
CC(=O)n1nnc2ccc([N+](=O)[O-])cc21	> 100 µM (inactive)	> 100 µM (inactive)	–	> 100 µM (inactive)	> 100 µM (inactive)	> 100 µM (inactive)	> 100 µM (inactive)	> 100 µM (inactive)	–	> 100 µM (inactive)	–	–	> 100 µM (inactive)	> 100 µM (inactive)	–	> 100 µM (inactive)	> 100 µM (inactive)	> 100 µM (inactive)	90.6 µM (inactive)	–
[N-]=[N+]=CC(=O)CCC(NC(=O)C(CCC(=O)C=[N+]=[N-])NC(=O)CCC(N)C(=O)O)C(=O)O (stereo unspecified)	> 100 µM (inactive)	> 100 µM (inactive)	–	> 100 µM (inactive)	> 100 µM (inactive)	> 100 µM (inactive)	> 100 µM (inactive)	> 100 µM (inactive)	–	> 100 µM (inactive)	–	> 100 µM (inactive)	–	> 100 µM (inactive)	–	> 100 µM (inactive)	> 100 µM (inactive)	> 100 µM (inactive)	> 100 µM (inactive)	–
CC(=O)OC(C)C(=O)C1c2cccc(O)c2C(=O)c2c(O)cc(C)cc21 (stereo unspecified)	1.36 µM (inactive)	1.31 µM (inactive)	–	0.322 µM (active)	0.634 µM (active)	0.259 µM (active)	0.234 µM (active)	0.344 µM (active)	–	0.56 µM (active)	–	1.59 µM (inactive)	1.42 µM (inactive)	1.01 µM (active)	–	0.354 µM (active)	1.06 µM (active)	0.188 µM (active)	1.12 µM (inactive)	–
